Results: patent US12708673B2, “Methods and compositions related to peptides and proteins with c-terminal elements” (Sanford Burnham Prebys Medical Discovery Institute, priority 2008, dated 2026)
Entries after “also recorded” stand apart in the source; their conditions may differ.

Assays:
cells = test: Cell internalization of iRGD compared with other RGD peptides; format: cell-based
pancreatic tumors = test: Tumor homing of intravenously injected fluorescamine-labeled iRGD peptide in PDAC mouse; format: in vivo; conditions: intravenous, 4.5 hrs circulation
Experimental: Approximately 200 μg of fluorescamine-labeled iRGD peptide was injected into a pancreatic ductal adenocarcinoma (PDAC) mouse through the tail vein, and was allowed to circulate for 4.5 hrs. The organs were harvested and observed under UV light (upper panel). […] T7 phage displaying iRGD peptides (main panel) or CG7C control peptides (right upper window) were incubated with PPC1 cells cultured on collagen-I coated cover slips for 2 hours at 37° C., stained with anti T7 antibody and a plasma membrane marker, and imaged by a confocal microscope.

PPC-1 cells [1] = test: T7 phage internalization into PPC-1 (PPC1) cells at 37° C. (acid wash and titration, or anti-T7 staining and confocal imaging); format: cell-based, human
Experimental: (§1) FIG. 2A: Binding of T7 phage to prostate cancer cells depends on the display of a C-terminal arginine on the phage particles. PPC1 cells were incubated with T7 bacteriophage displaying derivatives of the G7 (upper graph) or RPARPAR peptide (SEQ ID NO: 2) (lower graph) at 4° C., and the bound phage was quantified by plaque assay. Binding is expressed in fold over of the non-binding G7 control phage. FIG. 2B: Phage displaying C-terminal arginine is internalized into cultured PPC1 cells (arrow, nuclear internalization; arrowhead, cytoplasmic internalization). A panel of T7 phage clones were incubated at 37° C. with PPC1 cells grown on collagen-coated coverslips, stained with anti T7 antibody and imaged by confocal microscopy.
(§2) Phage display. For in vivo phage display, mice were injected intravenously with 10^10 plaque-forming units (pfu) of T7 phage followed by perfusion of the circulatory system and determination of the bound phage in target organs by titration. For cell binding studies on cultured cells (in vitro display) and organ-derived cell suspensions (ex vivo display), the cells were incubated with 10^9 pfu of phage at 4° C., washed, lysed, and quantified by titration. Incubation at 37° C. followed by low pH wash (glycine-HCl, pH 2.5) was used to assess the amount of internalized phage.
(§3) For biopanning and phage binding studies (Hoffman, J. A. et al., 2004), cultured cells were grown to confluence and harvested with trypsin and mouse organs were dissociated using Medimachine (BD Biosciences, San Jose, CA). To measure phage binding, 10^6 cells in binding buffer (DMEM containing 1% BSA) were incubated with 10^9 pfu/ml of T7 phage for 1 hour at 4° C. The cells were washed 4 times with the binding buffer, lysed in LB bacterial growth medium containing 1% NP-40, and titrated. Phage internalization assays used the same procedure, except that the cells were incubated with the phage at 37° C., and that an acidic buffer (500 mM sodium chloride, 0.1 M glycine, 1% BSA, pH 2.5) was used instead of binding buffer in the second wash.
(§4) Centrifugation on a silicone oil cushion (1.03 g/ml) was used to separate unbound phage from cells during time course experiments. Inhibitors of phage binding and internalization (heparin, chondroitin, glycocalyx removal enzymes, endocytosis inhibitors, free peptides, quantum dots and UV-inactivated phage) were added to the cells 20 minutes prior to incubation with phage. Endocytosis inhibitors used in this study were the following: nystatin (50 μg/ml), genistein (100 μg/ml), chlorpromazine (5 μg/ml), 5-(N-ethyl-N-isopropyl) amiloride (100 μM), wortmannin (10 μM).
Immunofluorescence staining. Cultured cells (2×10^5 cells) were grown in 6-well tissue culture plates on collagen-I coated coverslips (BD Biosciences, San Jose, CA) overnight at 37° C. in 5% CO2, and incubated with 10^8 pfu of T7 phage. The cells were fixed in 4% paraformaldehyde or cold (−20° C.) methanol, and stained with antibodies. Nuclei were stained with DAPI or […]. A polyclonal rabbit anti-T7 antibody was generated in-house as described previously (Laakkonen, P. et al. 2002b), except that an additional phage purification step using […] centrifugation was included. Other primary antibodies used were rat anti-mouse CD31 monoclonal antibody (BD Biosciences), rabbit anti-NRP-1, mouse anti-human Lamp-1, mouse anti-human caveolin (Millipore, Temecula, CA), mouse anti-NRP-1 (Miltenyi Biotec Inc., Auburn, CA), mouse anti-human EEA-1 (BD Biosciences, San Jose, CA). The secondary antibodies, Alexa594 goat antibodies to mouse, rat, and rabbit immunoglobulins and Alexa488 donkey anti-rabbit antibody were from Invitrogen (Carlsbad, CA). Cells and tissue sections were examined by confocal microscopy (Fluoview 500, Olympus America Inc., Center Valley, PA).

[2] = tested on: spontaneous pancreatic ductal adenocarcinoma; test: Spreading of intravenously injected phage into tumor tissue of transgenic mice bearing pancreatic ductal adenocarcinoma; format: in vivo, mouse; conditions: 15 min circulation
Text: The mice were than perfused with PBS containing 1% BSA, and the tumors were harvested. Cryosections of the tumors were stained with an anti-T7 phage antibody, an anti CD31 antibody, and DAPI. […] Staining is denoted by the bright coloring in both panels of FIG. 9.

NRP-1 = target: T1, NRP-1 (Homo sapiens, UniProt O14786); test: Affinity chromatography of PPC-1 tumor extract on immobilized RPARPAR peptide; format: binding; conditions: 130 kDa protein, MALDI-TOF
T1 construct: from tissue; host or cells: orthotopic PPC-1 prostate tumor xenografts grown in BALB/c nude mice, extracted with n-octyl-beta-D-glucopyranoside
Experimental: (§5) FIGS. 18A-18C show the identification and validation of NRP-1 as the CendR receptor. FIG. 18A: Affinity chromatography of proteins interacting with RPARPAR (SEQ ID NO: 2) peptide. PPC-1 tumor tissue was extracted with a 200 mM glucopyranoside buffer, and the extract was incubated with RPARPAR-coated (SEQ ID NO:2) beads, followed by extensive washes, and elution with 2 mM free RPARPAR (SEQ ID NO:2) peptide. Note appearance of a 130 kDa band, identified by mass spectroscopy as NRP-1, starting in the fraction 3 of the eluate. Upper panel—a silver stained gel, lower panel—an immunoblot with anti-NRP-1 antibody. FIG. 18B: Binding of RPARPAR (SEQ ID NO:2) phage to M21 melanoma cells transiently transfected with wild-type NRP-1 (NRP-1), triple mutant NS346A-E348A-T349A NRP-1 (Mutant NRP-1), or parental pcDNA3.1plasmid (Vector), and to non-transfected M21 cells. FIG. 18C: (c, d), Confocal immunofluorescence images of NRP-1 and RPARPAR (SEQ ID NO:2) T7 phage in PPC-1 cells incubated with phage at 37° C. for 40 minutes (c) and 3 hours (d). The phage and NRP-1 co-localize extensively, but there appears to be a progressive decrease in the overlap (arrowheads in c and d) and appearance of structures positive for the phage only (arrows, d). (e) Immunostaining and confocal imaging of RPARPAR (SEQ ID NO:2) phage and NRP-1 in M21 cells transiently transfected with NRP-1. […]

wild-type NRP-1 = target: T2, wild-type NRP-1 (Homo sapiens, UniProt O14786); test: Phage binding and internalization in M21 melanoma cells transiently transfected with wild-type NRP-1; format: cell-based
T2 construct: expressed in transfected cells; host or cells: M21 melanoma cells, transient transfection with lipofectamine; pcDNA3.1(+) construct, gift of Dr. Michael Klagsbrun
Experimental: as §5

PPC-1 cells [3] = test: T7 phage binding to PPC-1 (PPC1) cells at 4° C., quantified by titration/plaque assay; format: cell-based, human
Experimental: as §1, §2, §3, §4

PPC-1 cells [4] = test: Protease treatment of phage followed by phage binding assay on PPC-1 cells at 4° C.; format: cell-based, human
Experimental: 5×10^8 phage particles were incubated with indicated volumes of 2.5% trypsin at 37° C. for 20 min, followed by incubation of the phage with 1×10^6 PPC1 cells at 4° C. for 3 hours. Binding is expressed as fold over non-binding G7 control phage (the internalization of which was not affected by the trypsin treatment).
10^9 pfu of RPARPARA (SEQ ID NO:3) phage was treated with indicated amounts of trypsin at 37° C. followed by phage binding assay at 4° C. The data are representative of 4 independent binding experiments.
FIGS. 20A-20C show urokinase dependent CendR peptide. FIG. 20A: The design of a uPA-activatable CendR peptide (uCendR). […] Statistical analysis was performed with ANOVA (b); n=3; error bars indicate s.d.; triple asterisk, p<0.001. Scale bars: 20 μm.
as §3
Protease treatment of phage and qdots. 10^9 phage particles or 50 μl of peptide-coated qdots phage were treated with 50 iu of uPA, 25 μg of crystalline trypsin, 50 iu of thrombin, or 25 μg of collagenase type I (all Sigma, St. Louis, Mo).

T1 sequence (O14786 22-923): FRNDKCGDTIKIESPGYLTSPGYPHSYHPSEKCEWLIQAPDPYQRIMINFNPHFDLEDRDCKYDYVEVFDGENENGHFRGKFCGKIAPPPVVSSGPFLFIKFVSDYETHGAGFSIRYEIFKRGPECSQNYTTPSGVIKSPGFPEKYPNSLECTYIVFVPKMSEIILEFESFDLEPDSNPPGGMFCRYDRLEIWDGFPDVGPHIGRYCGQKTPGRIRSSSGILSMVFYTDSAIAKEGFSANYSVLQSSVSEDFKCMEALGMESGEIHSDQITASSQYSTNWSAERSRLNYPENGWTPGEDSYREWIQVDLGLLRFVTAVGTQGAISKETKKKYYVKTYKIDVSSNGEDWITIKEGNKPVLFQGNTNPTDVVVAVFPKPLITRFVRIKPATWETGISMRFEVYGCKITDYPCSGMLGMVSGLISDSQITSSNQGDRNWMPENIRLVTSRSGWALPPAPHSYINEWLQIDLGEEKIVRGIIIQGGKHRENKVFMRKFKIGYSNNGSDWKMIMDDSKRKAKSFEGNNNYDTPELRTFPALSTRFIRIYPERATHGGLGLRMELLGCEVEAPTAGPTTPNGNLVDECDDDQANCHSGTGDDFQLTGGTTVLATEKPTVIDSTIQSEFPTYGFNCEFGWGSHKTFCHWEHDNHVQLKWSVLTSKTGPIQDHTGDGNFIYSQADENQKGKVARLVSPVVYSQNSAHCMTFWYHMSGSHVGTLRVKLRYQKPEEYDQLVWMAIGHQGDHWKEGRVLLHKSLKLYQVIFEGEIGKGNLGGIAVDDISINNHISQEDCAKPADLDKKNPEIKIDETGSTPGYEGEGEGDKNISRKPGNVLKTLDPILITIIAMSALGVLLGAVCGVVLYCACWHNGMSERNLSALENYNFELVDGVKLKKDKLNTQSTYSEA
T2 sequence (O14786 22-923): as above

## CRGDKGPDC [iRGD peptide]
cells
  Internalization into cells relative to other RGD peptides: more strongly internalized into cells than any other RGD peptide
Pancreatic tumors
  Tumor homing: strong tumor homing; also recorded: homes to pancreatic tumors

## CRGDKGPDC [iRGD phage]
PPC-1 cells [1]; 37° C.
  Phage internalization into PPC-1 cells (in words): internalizes extensively into the tumor cells
[2]
  Distribution of phage in pancreatic tumor tissue: extensively taken up by the tumor cells forming the pancreatic tumor ducts

## RPARPAR (REAGENT) [RPARPAR peptide]
PPC-1 cells [1]
  Effect of unlabelled peptide in binding buffer on binding and internalization of VEGF-C7, enhanced tuftsin and A7R phage: reduced
NRP-1
  Protein released from immobilized peptide by elution with free RPARPAR peptide: NRP-1

## RPARPARA [RPARPARA phage]
wild-type NRP-1
  Phage binding and internalization by M21 cells with forced expression of NRP-1: is not internalized
PPC-1 cells [3]; 4° C.
  Phage binding to PPC-1 cells (in words): abolished the binding
PPC-1 cells [3]; PPC1 cells, without trypsin treatment
  Cell binding, fold over G7-displaying phage: 2.8 fold
PPC-1 cells [4]; phage incubated with trypsin at 37° C., binding at 4° C.
  Increase of phage binding to cells by trypsin treatment of the phage: more than 100 fold
PPC-1 cells [4]; trypsin
  Effect of trypsin treatment of phage on binding (in words): restored
